Tests used:
DRAK1 = DRAK1 (Homo sapiens (Human), UniProt Q9UEE5); assay: DRAK1 kinase activity inhibition (ADP-Glo, MRCL3 peptide substrate); format: biochemical
Description: (§1) DRAK1 and DRAK2 recombinant proteins were purchased from SignalChem Inc. To measure the kinase enzyme activity, the ADP-Glo™ kit provided by Promega Inc. was used. Buffer A used in the kinase reaction was composed of 60 mM Tris-Cl (pH 7.5), 30 mM MgCl2 and 0.15% BSA. Just before the experiment, 1 mM DTT was prepared by diluting 1 M solution and added thereto.
(§2) To measure the DRAK1 and DRAK2 activity, the substrate MRCL3 peptide and ATP were mixed with the enzymes. After an appropriate period of time, the reaction product ADP was quantitatively analyzed.
(§3) The buffer solution A was used to make a 3× substrate solution of 3× concentration so that the final concentrations of ATP and MRCL3 peptides were 1 uM, respectively, and 2.5 μl of each solution was dispensed into Optiplate 384 (perkin-elmer) microplate.
(§4) The final concentrations of ATP and MRCL3 peptide were made to be 1 uM respectively by using buffer A, followed by preparing a 3× substrate solution. The prepared substrate solution was distributed in Optiplate 384 (Perkin-Elmer) microplate (2.5 ul/well). Then, the compounds of Examples 1˜39 and the compounds of Comparative Examples 1-6, whose concentrations were tripled by the final concentration were distributed thereto (2.5 ul/well). Lastly, DRAK1 or DRAK2 enzyme solution, properly diluted by using buffer A, was added thereto (2.5 ul/well). Centrifugation was performed at 800 rpm for 1 minute, and then enzyme reaction was induced at 30° C.
(§5) 2 hours later, the enzyme reaction was terminated. To eliminate residual ATP, ADP-Glo™ reagent contained in ADP-Glo™ was added to each well at the concentration of 7.5 ul, which was the same amount as the sum of the previously added reagents, followed by centrifugation at the same RPM and time as the above. Additional reaction was induced at room temperature for 40 minutes. To convert the ADP produced by the kinase activity to ATP, 15 ul of kinase detection buffer was added to each well, followed by centrifugation. Five minutes after the centrifugation was completed, the luminescence value of the reaction product was determined using Envision, and the enzyme activity inhibition effect of the compound was measured. Then, IC50 of each compound was determined using Prism program.
(§6) The compounds of Example 1 and Example 19 were used as the experimental group and the compound of Comparative Example 6 was used as the control.

DRAK2 = DRAK2 (Homo sapiens (Human), UniProt O94768); assay: DRAK2 kinase activity inhibition (ADP-Glo, MRCL3 peptide substrate); format: biochemical; conditions: for DRAK2 IC50 compared with Comparative Examples 7 and 8 (n is 0): from Table 5
Sequence of DRAK2 (O94768 whole entry): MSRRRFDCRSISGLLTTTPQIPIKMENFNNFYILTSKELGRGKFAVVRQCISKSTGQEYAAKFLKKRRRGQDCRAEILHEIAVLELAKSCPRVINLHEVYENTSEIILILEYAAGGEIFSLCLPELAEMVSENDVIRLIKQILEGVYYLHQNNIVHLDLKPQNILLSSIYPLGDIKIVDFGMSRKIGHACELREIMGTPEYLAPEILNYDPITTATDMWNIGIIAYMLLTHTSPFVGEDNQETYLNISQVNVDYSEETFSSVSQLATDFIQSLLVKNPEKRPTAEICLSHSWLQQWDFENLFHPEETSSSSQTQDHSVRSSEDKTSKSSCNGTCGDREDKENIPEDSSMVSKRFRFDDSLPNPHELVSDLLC
Description: as §1, §2, §3, §4, §5, §6
To evaluate DRAK2 inhibition activity of the compound represented by formula 1 according to the number of n, the experiment was performed with the compounds of Example 1, Example 19, Example 40, Comparative Example 7 and W Comparative Example 8 by the same manner as described in Experimental Example 1, leading to the measurement of IC50 to DRAK2.

[1] = Table 3, recombinant enzyme, 1 uM ATP, 1 uM MRCL3 peptide, 30° C., 2 hours
[2] = Table 4, Experimental Example 2, DRAK2 selectivity evaluation
[3] = Table 5, Experimental Example 3, according to the number of n

Sequence of DRAK1 (Q9UEE5 whole entry): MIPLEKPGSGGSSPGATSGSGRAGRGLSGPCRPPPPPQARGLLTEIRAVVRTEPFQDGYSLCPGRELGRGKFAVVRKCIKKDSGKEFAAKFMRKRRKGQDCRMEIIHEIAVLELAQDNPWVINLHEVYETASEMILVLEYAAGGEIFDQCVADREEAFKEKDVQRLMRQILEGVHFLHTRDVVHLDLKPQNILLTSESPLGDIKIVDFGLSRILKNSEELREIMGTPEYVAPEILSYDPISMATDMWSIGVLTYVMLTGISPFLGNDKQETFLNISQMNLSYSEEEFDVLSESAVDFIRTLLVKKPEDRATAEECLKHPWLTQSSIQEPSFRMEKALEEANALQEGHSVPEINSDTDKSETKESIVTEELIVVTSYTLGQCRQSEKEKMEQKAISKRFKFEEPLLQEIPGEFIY

In the case of `NCCCNc1nc(Nc2ccc(S(=O)(=O)c3ccc([N+](=O)[O-])cc3)cc2)ncc1Cl` [Example 13, N4-(3-aminopropyl)-5-chloro-N2-(4-(4-nitrophenylsulfonyl)phenyl)pyrimidine-2,4-diamine], the IC50 (DRAK1; [1]) is reported as 110 nM and the IC50 (DRAK2; [1]) is reported as 14 nM.
Work on `Cc1ccc(Nc2ncc(Cl)c(NCCCN)n2)cc1C` [Example 14, N4-(3-aminopropyl)-5-chloro-N2-(3,4-dimethylphenyl)pyrimidine-2,4-diamine] yielded an IC50 (DRAK1; [1]) of 220 nM and an IC50 (DRAK2; [1]) of 37 nM.
For `NCCCNc1nc(Nc2ccc(F)c(C(F)(F)F)c2)ncc1Cl` [Example 15, N4-(3-aminopropyl)-5-chloro-N2-(4-fluoro-3-(trifluoromethyl)phenyl)pyrimidine-2,4-diamine], the IC50 (DRAK1; [1]) was 180 nM and the IC50 (DRAK2; [1]) was 26 nM.
For `NCCCNc1nc(Nc2ccc(Br)c(C(F)(F)F)c2)ncc1Cl` [Example 16, N4-(3-aminopropyl)-N2-(4-bromo-3-(trifluoromethyl)phenyl)-5-chloropyrimidine-2,4-diamine], the IC50 (DRAK1; [1]) was 740 nM and the IC50 (DRAK2; [1]) was 34 nM.
In the case of `NCCCNc1nc(Nc2ccc(Br)cc2)ncc1Cl` [Example 17, N4-(3-aminopropyl)-N2-(4-bromophenyl)-5-chloropyrimidine-2,4-diamine], the IC50 (DRAK1; [1]) is reported as 390 nM and the IC50 (DRAK2; [1]) is reported as 23 nM.
In the case of `COc1ccc(Nc2ncc(Cl)c(NCCCN)n2)cc1Cl` [Example 18, N4-(3-aminopropyl)-5-chloro-N2-(3-chloro-4-methoxyphenyl)pyrimidine-2,4-diamine], the IC50 (DRAK1; [1]) is reported as 180 nM and the IC50 (DRAK2; [1]) is reported as 35 nM.
Compound `Cc1cnc(Nc2ccc(Cl)cc2)nc1NCCCN` [Example 19, N4-(3-aminopropyl)-N2-(4-chlorophenyl)-5-methylpyrimidine-2,4-diamine] has an IC50 (DRAK1; [1]) of 710 nM, an IC50 (DRAK1; [2]) of 710 nM and an IC50 (DRAK2; [1]) of 23 nM. For the same compound, the IC50 (DRAK2; [2]) was 23 nM, the IC50 (DRAK2; [3]) was 23 nM and the “DRAK2 selectivity (DRAK2 versus DRAK1)” value (DRAK2; result in words, from Table 4) was “excellent DRAK2 selectivity”. For the same compound, the “DRAK2 IC50 compared with Comparative Examples 7 and 8 (n is 0)” value (DRAK2; result in words) was “significantly lower IC50”.
In the case of `NCCCNc1nc(Nc2ccc3c(c2)OCO3)ncc1Cl` [Example 20, N4-(3-aminopropyl)-N2-(benzo[d][1,3]dioxol-5-yl)-5-chloropyrimidine-2,4-diamine], the IC50 (DRAK1; [1]) is reported as 350 nM and the IC50 (DRAK2; [1]) is reported as 16 nM.
In the case of `NCCCNc1nc(Nc2ccc3c(c2)CCC3)ncc1Cl` [Example 21, N4-(3-aminopropyl)-5-chloro-N2-(2,3-dihydro-1H-indene-5-yl)pyrimidine-2,4-diamine], the IC50 (DRAK1; [1]) is reported as 220 nM and the IC50 (DRAK2; [1]) is reported as 21 nM.
Work on `NCCCNc1nc(Nc2ccc3c(c2)OCCO3)ncc1Cl` [Example 22, N4-(3-aminopropyl)-5-chloro-N2-(2,3-dihydrobenzo[b][1,4]dioxin-6-yl)pyrimidine-2,4-diamine] yielded an IC50 (DRAK1; [1]) of 220 nM and an IC50 (DRAK2; [1]) of 24 nM.
`NCCCNc1nc(Nc2ccc3c(c2)CCCC3)ncc1Cl` [Example 23, N4-(3-aminopropyl)-5-chloro-N2-(5,6,7,8-tetrahydronaphthalene-2-yl)pyrimidine-2,4-diamine] was tested, and the IC50 (DRAK1; [1]) was 160 nM and the IC50 (DRAK2; [1]) was 15 nM.
Compound `NCCCNc1nc(Nc2ccc3c(c2)CCCC3=O)ncc1Cl` [Example 24, 6-(4-(3-aminopropylamino)-5-chloropyrimidine-2-ylamino)-3,4-dihydronaphthalene-1(2H)-one] has an IC50 (DRAK1; [1]) of 230 nM and an IC50 (DRAK2; [1]) of 19 nM.
`NCCCNc1nc(Nc2ccc(N3CCNCC3)cc2)ncc1Cl` [Example 25, N4-(3-aminopropyl)-5-chloro-N2-(4-(piperazine-1-yl)phenyl)pyrimidine-2,4-diamine] showed an IC50 (DRAK1; [1]) of 30 nM and an IC50 (DRAK2; [1]) of 22 nM.
In the case of `NCCCCNc1nc(Nc2ccc(Cl)cc2)ncc1Cl` [Example 40, N4-(4-n-aminobutyl)-N2-(4-chlorophenyl)-5-chloropyrimidine-2,4-diamine], the IC50 (DRAK1; [1]) is reported as 480 nM, the IC50 (DRAK2; [1]) is reported as 47 nM and the IC50 (DRAK2; [3]) is reported as 47 nM. The “DRAK2 IC50 compared with Comparative Examples 7 and 8 (n is 0)” value (DRAK2; result in words) was “significantly lower IC50”.
